Assays:
[1] = tested on: patients with CRPC; test: Dedicated QT study (QTc interval); assay type: in vivo, human
From the text: The maximum mean QTcF change from baseline was 12.4 ms (2-sided 90% upper CI. 16.0 ms).

[2] = tested on: mouse xenograft models of prostate cancer; test: Mouse xenograft models of prostate cancer; assay type: in vivo; details: decreased tumor cell proliferation and increased apoptosis
[3] = Single oral administration of radiolabeled apalutamide (AUC share, excretion); assay type: in vivo
[4] = tested on: BCRP/OATP1B1; test: Co-administration of ERLEADA with rosuvastatin (BCRP/OATP1B1 substrate); details: in vivo
[5] = tested on: multidrug and toxin extrusions (MATEs); test: In vitro transporter inhibition; assay type: in vitro ADME
[6] = tested on: bacterial reverse mutation (Ames) assay; assay type: cell-based
[7] = tested on: in vitro chromosome aberration assay; test: In vitro chromosome aberration assay; assay type: cell-based
[8] = tested on: rat bone marrow; test: In vivo rat bone marrow micronucleus assay
[9] = tested on: rat; test: In vivo rat Comet assay
[10] = tested on: male rats; test: Repeat-dose toxicity study in male rats (up to 26 weeks); assay type: in vivo, rat
[11] = tested on: dogs; test: Repeat-dose toxicity study in dogs (up to 39 weeks); assay type: in vivo, dog
[12] = tested on: male rats; test: Fertility study in male rats; assay type: in vivo, rat
[13] = Solubility in aqueous media; assay type: physicochemical; details: aqueous media over a wide range of pH values
From the text: The chemical name is (4-[7-(6-Cyano-5-trifluoromethylpyridin-3-yl)-8-oxo-6-thioxo-5,7-diazaspiro[3.4]oct-5-yl]-2-fluoro-N-methylbenzamide). Apalutamide is a white to slightly yellow powder.

[14] = tested on: non-castrate hormone-sensitive and bicalutamide-resistant human prostate cancer xenograft models; details: Clegg et al. Cancer Res. 2012; cited from earlier work
[15] = biological target: CYP1A2 (Homo sapiens, UniProt P05177); test: In vitro effect on CYP; details: therapeutically relevant concentrations
[16] = biological target: CYP2D6 (Homo sapiens, UniProt P10635); test: In vitro effect on CYP; details: therapeutically relevant concentrations
[17] = biological target: CYP2B6 (Homo sapiens, UniProt P20813); test: In vitro CYP inhibition
[18] = biological target: CYP2C9 (Homo sapiens, UniProt P11712); test: In vitro CYP inhibition
[19] = biological target: CYP2C19 (Homo sapiens, UniProt P33261); test: In vitro CYP inhibition
[20] = biological target: T1, CYP3A4 (Homo sapiens, UniProt P08684); test: In vitro CYP inhibition
[21] = biological target: organic cation transporter 2 (OCT2) (Homo sapiens, UniProt O15244); test: In vitro transporter inhibition
[22] = biological target: P-gp (Homo sapiens, UniProt P08183); test: In vitro transporter substrate study
[23] = biological target: BCRP (Homo sapiens, UniProt Q9UNQ0); test: In vitro transporter substrate study
[24] = biological target: OATP1B3 (Homo sapiens, UniProt Q9NPD5); test: In vitro transporter substrate study
[25] = biological target: T1, CYP3A4; test: Co-administration with itraconazole (strong CYP3A4 inhibitor); assay type: in vivo; set-up: endogenous in cells; host or cells: human subjects, in vivo; details: ERLEADA 240 mg single dose with itraconazole
[26] = biological target: T2, CYP2C8 (Homo sapiens, UniProt P10632); test: Contribution of CYP2C8 in the metabolism of apalutamide; set-up: endogenous in cells; host or cells: human subjects, in vivo; details: estimated
T2 sequence (P10632 1-490): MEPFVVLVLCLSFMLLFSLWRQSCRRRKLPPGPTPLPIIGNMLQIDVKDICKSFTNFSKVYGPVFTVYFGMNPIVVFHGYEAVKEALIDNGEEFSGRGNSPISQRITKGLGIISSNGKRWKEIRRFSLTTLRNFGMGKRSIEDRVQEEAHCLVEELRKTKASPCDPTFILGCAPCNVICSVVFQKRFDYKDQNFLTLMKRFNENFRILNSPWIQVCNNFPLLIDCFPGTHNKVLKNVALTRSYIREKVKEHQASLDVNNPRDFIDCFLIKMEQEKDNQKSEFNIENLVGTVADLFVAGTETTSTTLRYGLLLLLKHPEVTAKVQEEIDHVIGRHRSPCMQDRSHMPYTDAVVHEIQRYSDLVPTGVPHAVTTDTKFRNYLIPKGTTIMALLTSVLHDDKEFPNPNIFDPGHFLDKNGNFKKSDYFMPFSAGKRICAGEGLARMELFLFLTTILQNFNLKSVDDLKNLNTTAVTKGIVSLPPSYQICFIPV
From the text: Metabolism is the main route of elimination of apalutamide.

[27] = Clinical pharmacokinetics of apalutamide and N-desmethyl apalutamide
[28] = up to 70 days after single oral radiolabeled dose

T1 sequence (P08684 whole entry): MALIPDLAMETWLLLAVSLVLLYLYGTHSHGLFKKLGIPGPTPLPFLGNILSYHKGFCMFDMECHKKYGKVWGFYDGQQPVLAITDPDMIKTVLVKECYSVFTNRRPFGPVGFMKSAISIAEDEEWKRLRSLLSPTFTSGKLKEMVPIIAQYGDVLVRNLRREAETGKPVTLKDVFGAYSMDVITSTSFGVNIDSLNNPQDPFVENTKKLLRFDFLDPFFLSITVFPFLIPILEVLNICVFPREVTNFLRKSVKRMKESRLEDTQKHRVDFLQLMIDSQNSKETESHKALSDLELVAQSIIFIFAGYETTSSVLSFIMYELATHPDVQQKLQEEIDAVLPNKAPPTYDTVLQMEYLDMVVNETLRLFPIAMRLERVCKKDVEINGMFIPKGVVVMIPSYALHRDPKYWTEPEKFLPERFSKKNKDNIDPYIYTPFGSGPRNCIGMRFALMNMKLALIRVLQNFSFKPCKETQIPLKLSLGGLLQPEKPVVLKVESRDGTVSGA
Chain of CYP2C9 (P11712 whole entry): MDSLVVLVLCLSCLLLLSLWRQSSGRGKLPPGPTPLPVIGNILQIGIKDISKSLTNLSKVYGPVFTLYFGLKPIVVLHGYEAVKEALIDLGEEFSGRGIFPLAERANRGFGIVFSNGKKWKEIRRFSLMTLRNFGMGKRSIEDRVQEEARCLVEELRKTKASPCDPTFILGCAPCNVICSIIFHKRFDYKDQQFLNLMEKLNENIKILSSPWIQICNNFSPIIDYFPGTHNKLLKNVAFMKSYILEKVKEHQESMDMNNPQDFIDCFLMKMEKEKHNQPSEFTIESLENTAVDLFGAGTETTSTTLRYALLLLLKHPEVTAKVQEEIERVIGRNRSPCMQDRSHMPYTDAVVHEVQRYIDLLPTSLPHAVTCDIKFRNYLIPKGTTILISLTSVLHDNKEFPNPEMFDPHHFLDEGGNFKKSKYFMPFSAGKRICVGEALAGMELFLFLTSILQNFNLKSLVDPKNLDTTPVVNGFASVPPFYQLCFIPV
Chain of organic cation transporter 2 (OCT2) (O15244 whole entry): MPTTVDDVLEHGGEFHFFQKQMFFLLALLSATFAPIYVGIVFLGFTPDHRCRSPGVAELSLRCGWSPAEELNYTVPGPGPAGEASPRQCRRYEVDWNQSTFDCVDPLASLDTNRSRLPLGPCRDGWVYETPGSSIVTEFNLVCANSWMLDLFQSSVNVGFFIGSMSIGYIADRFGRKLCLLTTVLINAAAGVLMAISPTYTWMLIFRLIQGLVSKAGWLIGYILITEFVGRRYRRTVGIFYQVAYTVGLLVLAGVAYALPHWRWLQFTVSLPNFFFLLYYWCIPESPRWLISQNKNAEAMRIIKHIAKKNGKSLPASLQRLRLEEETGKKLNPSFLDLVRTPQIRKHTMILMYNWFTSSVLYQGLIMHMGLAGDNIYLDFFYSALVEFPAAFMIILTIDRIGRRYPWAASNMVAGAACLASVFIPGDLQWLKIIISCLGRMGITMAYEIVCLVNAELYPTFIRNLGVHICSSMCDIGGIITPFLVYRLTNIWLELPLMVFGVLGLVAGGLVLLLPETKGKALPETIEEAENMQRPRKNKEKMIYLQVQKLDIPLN
Chain of OATP1B3 (Q9NPD5 whole entry): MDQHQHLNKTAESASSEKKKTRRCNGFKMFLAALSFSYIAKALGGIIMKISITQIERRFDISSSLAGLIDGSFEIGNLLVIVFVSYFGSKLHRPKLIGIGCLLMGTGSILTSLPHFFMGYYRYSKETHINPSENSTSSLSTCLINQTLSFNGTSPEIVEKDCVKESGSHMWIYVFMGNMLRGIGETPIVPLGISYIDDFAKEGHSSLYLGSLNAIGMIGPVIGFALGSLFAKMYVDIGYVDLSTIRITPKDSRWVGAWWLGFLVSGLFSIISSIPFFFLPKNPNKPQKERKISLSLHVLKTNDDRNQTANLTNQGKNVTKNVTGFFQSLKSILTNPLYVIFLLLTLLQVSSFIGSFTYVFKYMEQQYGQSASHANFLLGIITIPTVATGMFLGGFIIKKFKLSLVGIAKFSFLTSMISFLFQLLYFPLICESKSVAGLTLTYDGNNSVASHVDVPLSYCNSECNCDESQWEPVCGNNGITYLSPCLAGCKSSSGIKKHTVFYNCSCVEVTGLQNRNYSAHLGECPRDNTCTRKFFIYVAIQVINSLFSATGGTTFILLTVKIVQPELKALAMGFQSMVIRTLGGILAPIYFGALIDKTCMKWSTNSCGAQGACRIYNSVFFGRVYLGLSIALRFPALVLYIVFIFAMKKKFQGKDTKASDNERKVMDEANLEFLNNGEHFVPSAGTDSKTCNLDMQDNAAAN
Chain of CYP2C19 (P33261 whole entry): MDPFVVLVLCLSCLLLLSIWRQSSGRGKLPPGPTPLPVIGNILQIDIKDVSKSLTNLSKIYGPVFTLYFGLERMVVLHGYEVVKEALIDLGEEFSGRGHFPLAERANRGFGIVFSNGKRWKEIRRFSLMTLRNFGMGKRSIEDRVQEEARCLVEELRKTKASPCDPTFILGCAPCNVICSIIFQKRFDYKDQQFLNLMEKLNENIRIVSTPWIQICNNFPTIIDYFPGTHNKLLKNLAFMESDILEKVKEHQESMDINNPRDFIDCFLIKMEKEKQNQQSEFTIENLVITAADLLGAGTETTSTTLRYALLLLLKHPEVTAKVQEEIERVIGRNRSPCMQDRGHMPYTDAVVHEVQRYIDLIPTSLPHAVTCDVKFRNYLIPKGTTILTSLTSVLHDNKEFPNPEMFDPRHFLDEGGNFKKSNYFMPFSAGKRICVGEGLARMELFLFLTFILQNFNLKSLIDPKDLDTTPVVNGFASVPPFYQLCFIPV
Chain of CYP1A2 (P05177 whole entry): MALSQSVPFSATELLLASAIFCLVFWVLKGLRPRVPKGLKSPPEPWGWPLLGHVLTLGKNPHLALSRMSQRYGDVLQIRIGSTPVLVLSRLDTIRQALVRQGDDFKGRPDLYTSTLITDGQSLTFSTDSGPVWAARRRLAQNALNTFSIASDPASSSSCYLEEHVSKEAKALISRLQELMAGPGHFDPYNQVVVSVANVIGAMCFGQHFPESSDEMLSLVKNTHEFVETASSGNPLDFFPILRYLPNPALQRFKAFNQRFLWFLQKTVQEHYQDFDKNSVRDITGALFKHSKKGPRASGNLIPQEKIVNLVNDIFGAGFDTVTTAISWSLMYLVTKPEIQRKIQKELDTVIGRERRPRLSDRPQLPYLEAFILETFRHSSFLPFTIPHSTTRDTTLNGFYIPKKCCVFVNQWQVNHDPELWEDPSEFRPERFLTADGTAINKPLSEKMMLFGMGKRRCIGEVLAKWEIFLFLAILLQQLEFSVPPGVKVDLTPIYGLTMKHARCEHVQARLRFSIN
Chain of CYP2B6 (P20813 whole entry): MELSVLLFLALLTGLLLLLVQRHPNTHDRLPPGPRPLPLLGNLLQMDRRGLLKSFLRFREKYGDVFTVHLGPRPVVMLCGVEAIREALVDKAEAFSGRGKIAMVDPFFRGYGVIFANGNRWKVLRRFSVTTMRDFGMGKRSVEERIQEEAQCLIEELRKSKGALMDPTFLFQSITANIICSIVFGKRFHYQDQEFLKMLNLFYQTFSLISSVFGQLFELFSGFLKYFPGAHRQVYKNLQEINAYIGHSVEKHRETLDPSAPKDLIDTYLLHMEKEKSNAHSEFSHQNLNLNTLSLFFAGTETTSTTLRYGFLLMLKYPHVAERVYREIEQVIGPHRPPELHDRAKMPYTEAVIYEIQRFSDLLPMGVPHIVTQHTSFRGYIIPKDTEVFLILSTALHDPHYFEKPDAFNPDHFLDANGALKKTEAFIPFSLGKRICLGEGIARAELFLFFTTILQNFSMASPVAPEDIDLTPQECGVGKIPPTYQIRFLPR
Chain of CYP2D6 (P10635 whole entry): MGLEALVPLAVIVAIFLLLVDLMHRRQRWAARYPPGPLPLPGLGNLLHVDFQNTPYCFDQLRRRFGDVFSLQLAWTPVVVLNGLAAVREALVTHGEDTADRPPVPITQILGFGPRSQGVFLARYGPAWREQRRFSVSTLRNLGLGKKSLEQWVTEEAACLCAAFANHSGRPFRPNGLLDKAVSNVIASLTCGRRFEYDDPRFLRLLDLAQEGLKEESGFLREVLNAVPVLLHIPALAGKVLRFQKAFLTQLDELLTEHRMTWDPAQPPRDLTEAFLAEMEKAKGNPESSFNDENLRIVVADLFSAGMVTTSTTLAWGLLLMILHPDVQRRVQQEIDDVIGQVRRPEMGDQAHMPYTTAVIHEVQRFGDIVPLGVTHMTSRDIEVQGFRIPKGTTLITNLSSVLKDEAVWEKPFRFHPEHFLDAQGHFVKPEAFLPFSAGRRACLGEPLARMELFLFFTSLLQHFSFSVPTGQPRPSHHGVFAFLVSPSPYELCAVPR
Chain of BCRP (Q9UNQ0 whole entry): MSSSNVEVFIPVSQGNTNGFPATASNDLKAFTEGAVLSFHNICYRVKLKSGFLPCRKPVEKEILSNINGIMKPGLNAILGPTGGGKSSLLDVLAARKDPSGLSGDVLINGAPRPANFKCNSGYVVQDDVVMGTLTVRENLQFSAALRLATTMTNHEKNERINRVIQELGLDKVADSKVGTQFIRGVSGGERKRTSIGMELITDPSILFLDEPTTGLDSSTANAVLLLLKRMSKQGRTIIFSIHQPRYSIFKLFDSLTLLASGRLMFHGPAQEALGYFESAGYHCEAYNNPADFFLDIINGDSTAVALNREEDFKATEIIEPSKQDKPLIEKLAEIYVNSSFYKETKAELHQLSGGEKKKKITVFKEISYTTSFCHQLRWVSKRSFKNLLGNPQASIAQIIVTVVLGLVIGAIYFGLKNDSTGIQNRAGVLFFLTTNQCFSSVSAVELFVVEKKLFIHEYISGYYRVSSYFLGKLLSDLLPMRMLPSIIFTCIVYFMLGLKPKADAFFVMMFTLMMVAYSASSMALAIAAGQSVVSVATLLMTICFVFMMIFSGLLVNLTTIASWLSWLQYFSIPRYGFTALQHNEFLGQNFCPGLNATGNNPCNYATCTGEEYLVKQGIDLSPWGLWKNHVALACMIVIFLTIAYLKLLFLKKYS

Which “Maximum mean QTcF change from baseline” value ([1]; apalutamide 240 mg once daily, 45 patients with CRPC, 2-sided 90% upper CI 16.0 ms) does the source give for `CNC(=O)c1ccc(N2C(=S)N(c3cnc(C#N)c(C(F)(F)F)c3)C(=O)C23CCC3)cc1F` [Apalutamide, 4-[7-(6-cyano-5-trifluoromethylpyridin-3-yl)-8-oxo-6-thioxo-5,7-diazaspiro[3.4]oct-5-yl]-2-fluoro-N-methylbenzamide] here?
Its value is 12.4 ms.

And the Exposure-QT analysis ([1]; in vivo)?
Its Exposure-QT analysis is “concentration-dependent increase in QTcF”.

And the Effect on tumors [2]?
The Effect on tumors was “decreased tumor volume”.

And the “Share of the total AUC” value ([3]; single oral radiolabeled apalutamide 240 mg)?
Its value is 45%.

What about the “Dose recovered in feces” value [3, 28] of the same compound?
The value was 24%.

And the “Dose recovered in feces as this compound” value [3, 28]?
The value was 1.5%.

What about the “Dose recovered in urine” value [3, 28] of the same compound?
The value was 65%.

And the “Dose recovered in urine as this compound” value [3, 28]?
The value was 1.2%.

What about the “Induction of BCRP and OATP1B1, clinically” value [4] of the same compound?
The value was “weak inducer”.

What about the “Inhibition of MATEs” value [5] of the same compound?
Its value is “inhibit”.

What about the Mutagenicity [6] of the same compound?
The Mutagenicity was “did not induce mutations”.

What about the Genotoxicity [7] of the same compound?
Its Genotoxicity is “not genotoxic”.

And the Genotoxicity [8]?
The Genotoxicity was “not genotoxic”.

And the Genotoxicity [9]?
Its Genotoxicity is “not genotoxic”.

What about the “Dose at which atrophy of prostate gland and seminal vesicles, aspermia/hypospermia, tubular degeneration and/or interstitial cell hyperplasia or hypertrophy were observed” value [10] of the same compound?
Its value is at least 25 mg/kg/day.

And the “Dose at which atrophy of prostate gland and seminal vesicles, aspermia/hypospermia, tubular degeneration and/or interstitial cell hyperplasia or hypertrophy were observed” value [11]?
Its value is at least 2.5 mg/kg/day.

What about the “Dose at which a reduced number of live fetuses due to increased pre- and/or post-implantation loss was observed” value ([12]; 4 weeks of administration) of the same compound?
The value was 150 mg/kg/day.

What about the “Dose at which decreased sperm concentration and motility, abnormal sperm morphology, lower copulation and fertility rates, reduced secondary sex gland and epididymis weights were observed” value ([12]; 4 weeks of dosing) of the same compound?
Its value is at least 25 mg/kg/day.

What about the “Time after last administration at which effects on male rats were reversible” value ([12]; rat, in vivo) of the same compound?
Its value is 8 weeks.

What about the Solubility [13] of the same compound?
The Solubility was “practically insoluble”.

What about the Tumor response [14] of the same compound?
The Tumor response was “partial or complete tumor regression”.

And the “Effect on CYP1A2” value [15]?
Its value is “do not affect”.

And the “Effect on CYP2D6” value [16]?
Its value is “do not affect”.

What about the CYP2B6 inhibition [17] of the same compound?
Its CYP2B6 inhibition is “moderate inhibitors”.

What about the CYP2C9 inhibition [18] of the same compound?
The CYP2C9 inhibition was “weak inhibitors”.

And the CYP2C19 inhibition [19]?
The CYP2C19 inhibition was “weak inhibitors”.

And the CYP3A4 inhibition [20]?
Its CYP3A4 inhibition is “weak inhibitors”.

What about the “Inhibition of OCT2” value [21] of the same compound?
Its value is “inhibit”.

What about the “Substrate for P-gp” value [22] of the same compound?
The value was “substrates”.

And the “Substrate for BCRP” value [23]?
The value was “not”.

What about the “Substrate for OATP1B3” value [24] of the same compound?
Its value is “not”.

What about the “Apalutamide AUC change” value [25] of the same compound?
Its value is “similar”.

What about the “Apalutamide Cmax decrease” value [25] of the same compound?
The value was 22%.

What about the “Contribution of CYP2C8 in the metabolism of apalutamide” value ([26]; at steady-state) of the same compound?
The value was 40%.

And the “Contribution of CYP2C8 in the metabolism of apalutamide” value ([26]; following single dose)?
Its value is 58%.

And the CL/F ([27]; after single dosing)?
The CL/F was 1.3 L/h.

What about the “Pharmacokinetics in specific populations” value ([27]; age 18-94 years, race, mild to moderate renal impairment, mild to moderate hepatic impairment) of the same compound?
The value was “No clinically significant differences”.

What about the CL/F ([27]; at steady-state after once-daily dosing) of the same compound?
The CL/F was 2.0 L/h.

And the “Mean apparent volume of distribution at steady-state” value ([27]; human, in vivo)?
Its value is “approximately 276 L”.

What about the “Median time to achieve peak plasma concentration (tmax)” value ([27]; range: 1 to 5 hours) of the same compound?
Its value is 2 h.

What about the Time to steady-state ([27]; recommended dosage (240 mg once daily)) of the same compound?
The Time to steady-state was 4 weeks.

What about the “AUC at steady-state, mean” value ([27]; recommended dosage, SD 32 (apalutamide), 23 (N-desmethyl apalutamide)) of the same compound?
Its value is 100 µg·h/mL.

What about the “Dose dependence of Cmax and AUC” value ([27]; repeated once-daily dosing of 30 to 480 mg) of the same compound?
The value was “increased proportionally”.
